Data: ChEMBL document CHEMBL1144345, “Discovery of cell-permeable non-peptide inhibitors of beta-secretase by high-throughput docking and continuum electrostatics calculations” (J Med Chem, 2005)
pEC50: −log10 of the molar value.

How the values were obtained:
[1] = Cytotoxic concentration against human and other tumor cell lines; assay type: functional
[2] = Effective concentration against Abeta(sw) peptide; assay type: functional
Beta-secretase (BACE) = Beta-secretase (BACE) (Homo sapiens, UniProt Q9Y5Z0+P56817); experiment: Beta-secretase inhibitory activity as inhibition of secreted alkaline phosphatase in HEK293 cells expressing SEAP-APP fusion protein; assay type: functional, cell-based

Compound	CC50 [1] [µM]	pEC50 [2]	EC50 (Beta-secretase (BACE)) [µM]
CCSc1nsc(NC(=O)Nc2cccc(C(C)=O)c2)n1	23.3	5.59	
CCOCCCNC(=O)c1cc(NC(=O)Nc2cccc(Cl)c2)ccc1N(C)C	11.1	5.59	
COCCCNC(=O)c1cc(NC(=O)Nc2cc(C(F)(F)F)cc(C(F)(F)F)c2)ccc1N(C)C	24.6	5.49	27
CN(C)c1ccc(NC(=O)Nc2cc(C(F)(F)F)cc(C(F)(F)F)c2)cc1C(=O)NCCCN1CCOCC1	12.5	5.52	
